The text below walks through data of patent US11124537B2, “Inhibitors of glucocorticoid receptor” (ORIC Pharmaceuticals, Inc., priority 2015, dated 2021).

GR, sequence (P04150 whole entry): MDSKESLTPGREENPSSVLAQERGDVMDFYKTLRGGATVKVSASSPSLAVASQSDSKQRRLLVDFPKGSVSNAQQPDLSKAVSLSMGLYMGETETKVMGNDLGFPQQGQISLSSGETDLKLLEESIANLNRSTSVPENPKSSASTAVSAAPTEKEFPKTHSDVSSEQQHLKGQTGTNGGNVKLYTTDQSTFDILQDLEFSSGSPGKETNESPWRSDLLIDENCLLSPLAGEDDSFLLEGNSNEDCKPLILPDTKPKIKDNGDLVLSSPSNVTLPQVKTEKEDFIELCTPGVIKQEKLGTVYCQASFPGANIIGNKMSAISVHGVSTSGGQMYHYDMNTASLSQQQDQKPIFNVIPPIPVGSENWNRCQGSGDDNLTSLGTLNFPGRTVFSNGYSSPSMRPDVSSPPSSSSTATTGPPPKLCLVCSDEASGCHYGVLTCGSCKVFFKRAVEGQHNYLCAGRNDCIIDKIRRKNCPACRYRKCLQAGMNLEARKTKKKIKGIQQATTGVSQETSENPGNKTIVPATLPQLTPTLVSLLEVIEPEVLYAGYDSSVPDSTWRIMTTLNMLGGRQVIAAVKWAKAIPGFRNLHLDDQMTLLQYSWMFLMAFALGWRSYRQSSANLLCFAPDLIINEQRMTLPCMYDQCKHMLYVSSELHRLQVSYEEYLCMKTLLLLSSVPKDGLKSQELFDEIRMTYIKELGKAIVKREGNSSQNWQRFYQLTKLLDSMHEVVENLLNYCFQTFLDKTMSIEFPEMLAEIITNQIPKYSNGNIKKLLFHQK

One assay addresses GR (Homo sapiens (Human), UniProt P04150). Put plainly: In Vitro GR Luciferase Reporter Assay. Format: cell-based. Conditions: CHO-K1-GR-MMTV-Luc reporter cells, antagonist assay, 10 nM Dexamethasone, 18-24 hours. The text has this: Example 4: In Vitro GR Luciferase Reporter Assay
Cell Line: CHO-K1-GR-MMTV-Luc reporter cells
Culture Media: DMEM (with phenol red)+10% FBS
Assay Media: DMEM (without phenol red)+10% CSS
Culture CHO-K1-GR-MMTV-Luc reporter cells in 15 cm plates in Culture Media at conditions less than 90% confluence.
Prepare 200×DMSO 1:5 serial dilutions of control and test compounds in 96-well non-sterile V bottom plate in DMSO, 8 serial dilutions for each compound.
Prepare 5× Assay Media diluted compound serial dilutions in 96-well non-sterile V bottom plate: Add 97.5 uL/well of Assay Media into 96-well then add 2.5 ul of 200× concentration of compounds and mix well.
Seed cells for Antagonist Assay: […] CHO-K1-GR-MMTV-Luc reporter cells were seeded in a Corning 3707 flat clear bottom 384-well white TC plate in 20 ul of Assay Media containing 12.5 nM Dexamethasone (final concentration=10 nM).
Add compounds: 5 ul of assay media diluted compounds were added to appropriate wells and followed a quick spin (1000 rpm, 10 sec) to bring media and cells to the bottom of plate. The plates were covered with SealMate film to avoid evaporation and placed in 37° C. incubator for approximately 18-24 hours.
Read plates: Equilibrate appropriate amount of Promega OneGlo luciferase reagent to room temperature. Remove the plates from incubator and add 25 uL of OneGlo reagent/well by multiple channel pipette and read the plates with Tecan F500 luminometer within 3 minutes.
The ability of the compounds disclosed herein to inhibit GR activity was quantified and the respective IC50 value was determined. Table 3 provides the cellular IC50 values of various substituted steroidal compounds disclosed herein.
`CN(C)c1ccc([C@H]2C[C@@]3(C)[C@@H](CC[C@@]3(O)C#Cc3ccccc3)[C@@H]3CCC4=CC(=O)CCC4=C32)cc1` [drawing 266]: the concentration for half-maximal inhibition (IC50) was no more than 100 nM.

As for `COC(C)(C)C#C[C@]1(O)CC[C@H]2[C@@H]3CCC4=CC(=O)CCC4=C3[C@@H](c3ccc(N4CCN(C(=O)CO)CC4)cc3)C[C@@]21C`, the 50% inhibitory concentration (IC50) was greater than 100 nM.

Regarding `COC1CN(c2ccc([C@H]3C[C@@]4(C)[C@@H](CC[C@@]4(O)C#CC(C)(C)C)[C@@H]4CCC5=CC(=O)CCC5=C43)cc2)C1` [drawing 341], the IC50 is no more than 100 nM.

In turn, `CC(C)C#C[C@]1(O)CC[C@H]2[C@@H]3CCC4=CC(=O)CCC4=C3[C@@H](c3ccc(N(C)C)c(F)c3)C[C@@]21C` returned an IC50 of no more than 100 nM.

Another assay relates to AR. Put plainly: In Vitro AR Agonism Assay. Format: cell-based. The note with it: LNAR reporter cell line, 10% CSS, 18-24 hrs; ratio of maximum response to that of Mifepristone (set to 1). The procedure: Example 5: In Vitro AR Agonism Assay
The AR agonism assay was done in the LNAR reporter cell line which has overexpressed AR and 4XARE-Luc genes. This cell line is sensitive to even minor partial AR agonism activity in hormone-deprived media (CSS). The assays were done in RPMI (without phenol red)+10% CSS using 6000 LNAR cells/well in 384-well plates and compounds were incubated with cells in […] incubator for 18-24 hrs. OneGlo reagent (25 uL/well) was added and plates were read with luminometer within 3 minutes.
To gauge the AR partial agonism activity, Mifepristone is included as a standard in the assay. AR agonism assay results are quantified by determining the ratio of the maximum response of individual compounds to the maximum response of Mifepristone (arbitrarily set to 1). Values of Table 4 are reported as Relative Maximum Response to Mifepristone. This general trend of AR agonism was shown for the class of compounds described herein.
For the compound `COC(C)(C)C#C[C@]1(O)CC[C@H]2[C@@H]3CCC4=CC(=O)CCC4=C3[C@@H](c3ccc(N4CCCC4)cc3)C[C@@]21C` [drawing 380], the “Relative Maximum Response to Mifepristone” value (shortened to “Relative Maximum Response”) is given as “A (A: ≤0.4)”.

Regarding `CC(C)(C)C#C[C@]1(O)CC[C@H]2[C@@H]3CCC4=CC(=O)CCC4=C3[C@@H](c3ccc(N4CCN(S(C)(=O)=O)CC4)cc3)C[C@@]21C` [drawing 382], the “Relative Maximum Response” value is given as “B (B: >0.4)”.

On to `CN(C)c1ccc([C@H]2C[C@@]3(C)[C@@H](CC[C@@]3(O)C#CC3(C)COC3)[C@@H]3CCC4=CC(=O)CCC4=C32)cc1` [drawing 384], for which the “Relative Maximum Response” value was “A (A: ≤0.4)”.

Regarding `C[C@@H]1C[C@H]2[C@@H]3CCC4=CC(=O)CCC4=C3[C@@H](c3ccc(N(C)C)cc3)C[C@]2(C)[C@]1(O)C#CC(C)(C)C` [drawing 379], the “Relative Maximum Response” value is “A (A: ≤0.4)”.

Take `CC(C)C#C[C@]1(O)CC[C@H]2[C@@H]3CCC4=CC(=O)CCC4=C3[C@@H](c3cc(F)c(C(C)C)c(F)c3)C[C@@]21C` [drawing 374]: the “Relative Maximum Response” value is “A (A: ≤0.4)”.

Consider `CN(C)c1ccc([C@H]2C[C@@]3(C)[C@@H](CC[C@@]3(O)C#CC3CC3)[C@@H]3CCC4=CC(=O)CCC4=C32)c(F)c1F` [drawing 375], for which the “Relative Maximum Response” value is reported as “A (A: ≤0.4)”.

Turning to `CN(C)c1ccc([C@H]2C[C@@]3(C)[C@@H](CC[C@@]3(O)C#Cc3ccccc3)[C@@H]3CCC4=CC(=O)CCC4=C32)cc1` [drawing 366], the “Relative Maximum Response” value is listed as “A (A: ≤0.4)”.

Turning to `CC(C)(C)C#C[C@]1(O)CC[C@H]2[C@@H]3CCC4=CC(=O)CCC4=C3[C@@H](c3cccc(C4CC4)c3)C[C@@]21C` [drawing 369], the “Relative Maximum Response” value was “A (A: ≤0.4)”.

As for `CN(C)c1cc(F)c([C@H]2C[C@@]3(C)[C@@H](CC[C@@]3(O)C#CC(C)(C)C)[C@@H]3CCC4=CC(=O)CCC4=C32)cc1F` [drawing 376], the “Relative Maximum Response” value is “A (A: ≤0.4)”.

As for `CCC#C[C@]1(O)CC[C@H]2[C@@H]3CCC4=CC(=O)CCC4=C3[C@@H](c3ccc4c(c3)OCCO4)C[C@@]21C` [drawing 377], the “Relative Maximum Response” value is on record as “A (A: ≤0.4)”.

On to `CN(C)c1ccc([C@H]2C[C@@]3(C)[C@@H](CC[C@@]3(O)C#Cc3ccc(S(C)(=O)=O)cc3)[C@@H]3CCC4=CC(=O)CCC4=C32)cc1` [drawing 383], for which the “Relative Maximum Response” value is reported as “B (B: >0.4)”.

Regarding `Cc1cc([C@H]2C[C@@]3(C)[C@@H](CC[C@@]3(O)C#CC(C)(C)C)[C@@H]3CCC4=CC(=O)CCC4=C32)ccc1N(C)C` [drawing 371], the “Relative Maximum Response” value is recorded as “A (A: ≤0.4)”.

On to `Cc1c(F)cc([C@H]2C[C@@]3(C)[C@@H](CC[C@@]3(O)C#Cc3ccc(S(C)(=O)=O)cc3)[C@@H]3CCC4=CC(=O)CCC4=C32)cc1F` [drawing 372], for which the “Relative Maximum Response” value is given as “A (A: ≤0.4)”.

For `CC(C)(C)C#C[C@]1(O)CC[C@H]2[C@@H]3CCC4=CC(=O)CCC4=C3[C@@H](c3ccc(N4CCCC4)cc3)C[C@@]21C` [drawing 368], the “Relative Maximum Response” value is listed as “A (A: ≤0.4)”.

Consider `CC(C)C#C[C@]1(O)CC[C@H]2[C@@H]3CCC4=CC(=O)CCC4=C3[C@@H](c3c(F)cc(N4CCOCC4)cc3F)C[C@@]21C` [drawing 373], for which the “Relative Maximum Response” value is listed as “A (A: ≤0.4)”.

Consider `CC(C)(C)C#C[C@]1(O)CC[C@H]2[C@@H]3CCC4=CC(=O)CCC4=C3[C@@H](c3ccc(N4CCC[C@@H]4CO)cc3)C[C@@]21C` [drawing 385], for which the “Relative Maximum Response” value was “A (A: ≤0.4)”.

On to `COC1CN(c2ccc([C@H]3C[C@@]4(C)[C@@H](CC[C@@]4(O)C#CC(C)(C)C)[C@@H]4CCC5=CC(=O)CCC5=C43)cc2)C1` [drawing 381], for which the “Relative Maximum Response” value is given as “A (A: ≤0.4)”.

Take `CC(C)(C)C#C[C@]1(O)CC[C@H]2[C@@H]3CCC4=CC(=O)CCC4=C3[C@@H](c3ccc(C(C)(C)C)cc3)C[C@@]21C` [drawing 367]: the “Relative Maximum Response” value was “A (A: ≤0.4)”.

For the compound `CN(C)c1ccc([C@H]2C[C@@]3(C)[C@@H](CC[C@@]3(O)C#CC(C)(C)C)[C@@H]3CCC4=CC(=O)CCC4=C32)cc1F` [drawing 370], the “Relative Maximum Response” value is “A (A: ≤0.4)”.

Turning to `CC(C)(C)C#C[C@]1(O)CC[C@H]2[C@@H]3CCC4=CC(=O)CCC4=C3[C@@H](c3ccc4c(c3)OCO4)C[C@@]21C` [drawing 378], the “Relative Maximum Response” value was “A (A: ≤0.4)”.

Still in this assay, the particulars now being: LNAR reporter cell line; in concentrations as low as 10 nM.
For the compound `CC#C[C@]1(O)CC[C@H]2[C@@H]3CCC4=CC(=O)CCC4=C3[C@@H](c3ccc(N(C)C)cc3)C[C@@]21C` [Mifepristone, reference compound], the “partial AR agonism” value is reported as “strong partial AR agonism”.

The term IC50 denotes the concentration that inhibits the measured activity by half. A high value points to weaker potency in that assay.
